Test results as given in patent US8546443B2, “Benzylic oxindole pyrimidines” (Boehringer Ingelheim International GmbH, priority 2010, dated 2013).

Assays:
[1] = molecular target: T1, cytoplasmic kinase domain of human IGF-1R (IGF-1R-GST) (Homo sapiens, UniProt P08069); assay: Insulin-like growth factor-1 receptor (IGF-1R) kinase assay (DELFIA); assay type: biochemical; conditions: IGF-1R-GST kinase activity, read-out: IGF1R IC50
T1 construct: cytoplasmic kinase domain of human IGF-1R (amino acids 964-1370); GST (glutathione-S-transferase); made in house; host or cells: High Five insect cells (Invitrogen)
In short: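 GST-tagged IGF-1R cytoplasmic kinase domain phosphorylates pEY with biotinylated pEY for 40 min at RT; EDTA stop. Product captured on streptavidin, detected with europium anti-phosphotyrosine antibody by DELFIA time-resolved fluorescence; IC50 from inhibition curves.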

[2] = system: TC-71 (Ewing's sarcoma) cells; assay: Cell proliferation assay, TC-71 (Alamar Blue); assay type: cell-based; conditions: 72 h with compound, EC50 ranges as class symbols
Experimental: Cell Proliferation Assays
Compounds were tested for their anti-proliferative effects in the TC-71 (Ewing's sarcoma) and HCT 116 (colorectal carcinoma) cancer cell lines in vitro. Published scientific data has described that interference with the Insulin-like Growth Factor-1 Receptor (IGF-1R) signaling pathway reduces the proliferation of TC-71 cells. Therefore TC-71 cells served as a positive control cell line for monitoring the activity of compounds against IGF-1R-mediated cell proliferation. […] Therefore the HCT 116 cell line served as a negative control.
2000 TC-71 cells or 1000 HCT 116 cells were seeded per well in 180 μL IMDM+10% foetal calf serum (FCS)+ penicillin/streptomycin into 96-well microtitre plates. The plates were placed in a cell culture incubator (37° C. in a humidified atmosphere of […]/5 CO2) overnight. The following day, serial dilutions of compounds, prepared in duplicates, were transferred onto the cell layers (controls without compound). The cells were cultivated for a further 72 h in the cell culture incubator. 20 μL of Alamar Blue™ (Serotec Ltd, Düsseldorf, Germany) was added to each well and the plates incubated for 7 h in the cell culture incubator. Fluorescence (extinction wavelength of 544 nm and emission at 590 nm) was then measured and the normalized data fitted by iterative calculation with a sigmoidal curve analysis program (Graph Pad Prism) with a variable Hill slope to determine the IC50 values.

T1 sequence (P08069 964-1367 limits assumed): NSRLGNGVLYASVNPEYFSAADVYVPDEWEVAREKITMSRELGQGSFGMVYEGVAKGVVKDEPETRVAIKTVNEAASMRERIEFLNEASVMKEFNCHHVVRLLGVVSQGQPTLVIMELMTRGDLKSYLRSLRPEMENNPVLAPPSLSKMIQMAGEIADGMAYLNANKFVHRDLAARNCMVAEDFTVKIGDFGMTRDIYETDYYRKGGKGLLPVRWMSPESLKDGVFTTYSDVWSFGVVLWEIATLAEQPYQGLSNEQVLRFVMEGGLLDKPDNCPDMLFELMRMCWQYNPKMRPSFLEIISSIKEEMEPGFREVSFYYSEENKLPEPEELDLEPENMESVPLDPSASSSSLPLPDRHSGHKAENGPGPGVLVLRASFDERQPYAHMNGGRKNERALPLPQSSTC

SMILES | IC50 [1] [nM] | EC50 [2] [nM]
CC1(C)C(=O)Nc2cccc(CNc3nc(Nc4ccc(C5CCCNC5)cc4)ncc3Br)c21 (racemic) [Example I-238] | 1 | 50 to 250
CNC1(C(=O)N2CCCC(c3ccc(Nc4ncc(Br)c(NCc5cccc6c5C(C)(C)C(=O)N6)n4)c(C)c3)C2)CC1 (racemic) [Example I-291] | 6 | 50 to 250
COc1cc(C2CCCN(CC(C)(C)O)C2)ccc1Nc1ncc(C(F)(F)F)c(NCc2cccc3c2C(C)(C)C(=O)N3)n1 (racemic) [Example I-301] | 1.6 | < 50
Cc1cc(C2CCCN(CC(C)(C)O)C2)ccc1Nc1ncc(C(F)(F)F)c(NCc2cccc3c2C(C)(C)C(=O)N3)n1 (racemic) [Example I-306] | 1 | < 50
Cc1cc(C2CCCN(CC(O)C(F)(F)F)C2)ccc1Nc1ncc(Br)c(NCc2cccc3c2C(C)(C)C(=O)N3)n1 (racemic) [Example I-316] | 2 | 50 to 250
Cc1cc(C2CCCN(CC(C)(C)O)C2)ccc1Nc1ncc(Br)c(NCc2cccc3c2C(C)(C)C(=O)N3)n1 (racemic) [Example I-318] | 0.4 | < 50
COc1cc(C2CCCN(CC(C)(C)O)C2)ccc1Nc1ncc(Br)c(NCc2cccc3c2C(C)(C)C(=O)N3)n1 (racemic) [Example I-322] | 0.5 | < 50
CC1(C)C(=O)Nc2cccc(CNc3nc(Nc4ccc(C5CCCN(CC(O)C(F)(F)F)C5)cc4)ncc3Br)c21 (racemic) [Example I-325] | 2 | 50 to 250
COc1cc(C2CCCN(CC(C)(C)O)C2)ccc1Nc1ncc(Cl)c(NCc2cccc3c2C(C)(C)C(=O)N3)n1 (racemic) [Example I-327] | 1 | < 50
Cc1cc(C2CCCN(CC(C)(C)O)C2)ccc1Nc1ncc(Cl)c(NCc2cccc3c2C(C)(C)C(=O)N3)n1 (racemic) [Example I-328] | 1 | < 50
Cc1cc(C2CCCN(CC(O)C(F)(F)F)C2)ccc1Nc1ncc(Cl)c(NCc2cccc3c2C(C)(C)C(=O)N3)n1 (racemic) [Example I-329] | 2 | < 50
CC1(C)C(=O)Nc2cccc(CNc3nc(Nc4ccc(C5CCCN(CC(O)C(F)(F)F)C5)cc4)ncc3Cl)c21 (racemic) [Example I-333] | 2 | 250 to 3000
COCCN1CCCC(c2ccc(Nc3ncc(C(F)(F)F)c(NCc4cccc5c4C(C)(C)C(=O)N5)n3)c(OC)c2)C1 (racemic) [Example I-350] | 0.5 | < 50
COc1cc(C2CCCN(CCO)C2)ccc1Nc1ncc(C(F)(F)F)c(NCc2cccc3c2C(C)(C)C(=O)N3)n1 (racemic) [Example I-351] | 0.5 | < 50
Cc1cc(C2CCCN(CCO)C2)ccc1Nc1ncc(C(F)(F)F)c(NCc2cccc3c2C(C)(C)C(=O)N3)n1 (racemic) [Example I-354] | 1 | < 50
COCCN1CCCC(c2ccc(Nc3ncc(C(F)(F)F)c(NCc4cccc5c4C(C)(C)C(=O)N5)n3)c(C)c2)C1 (racemic) [Example I-356] | 0.8 | < 50
COCCN1CCCC(c2ccc(Nc3ncc(Br)c(NCc4cccc5c4C(C)(C)C(=O)N5)n3)cc2)C1 (racemic) [Example I-357] | 0.7 | 50 to 250

SMILES | IC50 [1] [nM] | EC50 [2] [nM]
CC1(C)C(=O)Nc2cccc(CNc3nc(Nc4ccc(C5CCCN(CCO)C5)cc4)ncc3Br)c21 (racemic) [Example I-358] | 0.7 | < 50
COCCN1CCCC(c2ccc(Nc3ncc(Br)c(NCc4cccc5c4C(C)(C)C(=O)N5)n3)c(C)c2)C1 (racemic) [Example I-359] | 0.5 | < 50
COCCN1CCCC(c2ccc(Nc3ncc(Br)c(NCc4cccc5c4C(C)(C)C(=O)N5)n3)c(OC)c2)C1 (racemic) [Example I-360] | 0.6 | < 50
COc1cc(N2CCNCC2)ccc1Nc1ncc(C(F)(F)F)c(NCc2cccc3c2C(C)(C)C(=O)N3)n1 [Example I-31] | 0.7 | < 50
CC1(C)C(=O)Nc2cccc(CNc3nc(Nc4ccc(C5CCN(C(=O)C6CCCC(=O)N6)CC5)cc4)ncc3Br)c21 (stereo not drawn) [Example I-53] | 6 | 50 to 250
CC(C)(O)C(=O)N1CCC(c2ccc(Nc3ncc(Br)c(NCc4cccc5c4C(C)(C)C(=O)N5)n3)cc2)CC1 [Example I-54] | 7 | 50 to 250
CC1(C)C(=O)Nc2cccc(CNc3nc(Nc4ccc(C5CCN(C(=O)C6CCCN6)CC5)cc4)ncc3Br)c21 (stereo not drawn) [Example I-55] | 1 | 50 to 250
CC1(C)C(=O)Nc2cccc(CNc3nc(Nc4ccc(C5CCN(C(=O)C6CCN6)CC5)cc4)ncc3Br)c21 (stereo not drawn) [Example I-56] | 2 | 250 to 3000
Cc1cc(C2CCN(C(=O)CN(C)C)CC2)ccc1Nc1ncc(Br)c(NCc2cccc3c2C(C)(C)C(=O)N3)n1 [Example I-57] | 0.76 | < 50
CN(C)CC(=O)N1CCC(n2cc(Nc3ncc(Cl)c(NCc4cccc5c4C(C)(C)C(=O)N5)n3)cn2)CC1 [Example I-66] | 6 | 250 to 3000
Cc1cc(C2CCN(C(=O)N(C)C)CC2)ccc1Nc1ncc(Cl)c(NCc2cccc3c2C(C)(C)C(=O)N3)n1 [Example I-67] | 15 | 50 to 250
COc1cc(C2CCN(C(=O)CN(C)C)CC2)ccc1Nc1ncc(Br)c(NCc2cccc3c2C(C)(C)C(=O)N3)n1 [Example I-68] | 0.4 | < 50
Cc1cc(C2CCN(C(=O)CN(C)C)CC2)ccc1Nc1ncc(Cl)c(NCc2cccc3c2C(C)(C)C(=O)N3)n1 [Example I-69] | 1 | < 50
COc1cc(N2CCN(C)CC2)ccc1Nc1ncc(Cl)c(NCc2cccc3c2C(C)(C)C(=O)N3)n1 [Example I-97] | 2 | < 50
CN1CCC(n2cc(Nc3ncc(Cl)c(NCc4cccc5c4C(C)(C)C(=O)N5)n3)cn2)CC1 [Example I-102] | 4 | 50 to 250
Cc1cc(C2CCN(CC(C)(C)O)CC2)c(C)cc1Nc1ncc(Cl)c(NCc2cccc3c2C(C)(C)C(=O)N3)n1 [Example I-338] |  | 250 to 3000

Continued, values first:

IC50 [1] [nM] | EC50 [2] [nM] | SMILES
 | < 50 | COc1cc(C2CCCN(CCO)C2)ccc1Nc1ncc(Br)c(NCc2cccc3c2C(C)(C)C(=O)N3)n1 (racemic) [Example I-361]
0.6 | < 50 | Cc1cc(C2CCCN(CCO)C2)ccc1Nc1ncc(Br)c(NCc2cccc3c2C(C)(C)C(=O)N3)n1 (racemic) [Example I-364]
1 | 50 to 250 | CNC(=O)CN1CCCC(c2ccc(Nc3ncc(Br)c(NCc4cccc5c4C(C)(C)C(=O)N5)n3)cc2)C1 (racemic) [Example I-365]
2 | 50 to 250 | CNC(=O)CN1CCCC(c2ccc(Nc3ncc(Br)c(NCc4cccc5c4C(C)(C)C(=O)N5)n3)c(C)c2)C1 (racemic) [Example I-366]
2 | < 50 | CCc1cc(C2CCCN(CCOC)C2)ccc1Nc1ncc(Br)c(NCc2cccc3c2C(C)(C)C(=O)N3)n1 (racemic) [Example I-368]
0.8 | < 50 | COCCN1CCCC(c2ccc(Nc3ncc(Cl)c(NCc4cccc5c4C(C)(C)C(=O)N5)n3)c(OC)c2)C1 (racemic) [Example I-371]
0.8 | < 50 | COc1cc(C2CCCN(CCO)C2)ccc1Nc1ncc(Cl)c(NCc2cccc3c2C(C)(C)C(=O)N3)n1 (racemic) [Example I-372]
0.4 | 50 to 250 | COCCN1CCCC(c2ccc(Nc3ncc(Cl)c(NCc4cccc5c4C(C)(C)C(=O)N5)n3)c(C)c2)C1 (racemic) [Example I-373]
6 | 50 to 250 | CNC(=O)CN1CCCC(c2ccc(Nc3ncc(Cl)c(NCc4cccc5c4C(C)(C)C(=O)N5)n3)cc2)C1 (racemic) [Example I-379]
2 | 50 to 250 | COCCN1CCCC(c2ccc(Nc3ncc(Cl)c(NCc4cccc5c4C(C)(C)C(=O)N5)n3)cc2)C1 (racemic) [Example I-380]
0.9 | 50 to 250 | CC1(C)C(=O)Nc2cccc(CNc3nc(Nc4ccc(C5CCCN(CCO)C5)cc4)ncc3Cl)c21 (racemic) [Example I-381]
1 | < 50 | Cc1cc(C2CCCN(CCO)C2)ccc1Nc1ncc(Cl)c(NCc2cccc3c2C(C)(C)C(=O)N3)n1 (racemic) [Example I-382]
2 | 50 to 250 | CNC(=O)CN1CCCC(c2ccc(Nc3ncc(Cl)c(NCc4cccc5c4C(C)(C)C(=O)N5)n3)c(C)c2)C1 (racemic) [Example I-383]
6 | 50 to 250 | CCc1cc(C2CCCN(CCOC)C2)ccc1Nc1ncc(Cl)c(NCc2cccc3c2C(C)(C)C(=O)N3)n1 (racemic) [Example I-384]
 | < 50 | CNC(=O)CN1CCC(c2ccc(Nc3ncc(Cl)c(NCc4cccc5c4C(C)(C)C(=O)N5)n3)c(C)c2)CC1 [Example I-370]
